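Cultured in 96-well plates, cells were exposed to test compound for 48 hours across five concentrations. GI50 marks 50% less growth.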 Calls of active or inactive are those of the source. No stated cut-off is given here; in the data, active = GI50 up to about 1.1 µM and inactive = higher.
Legend:
Assay in all cases: DTP human tumour cell line panel, 48 h
ACHN = test system: ACHN
CCRF-CEM = test system: CCRF-CEM
SF-539 = test system: SF-539
SN12C = test system: SN12C
HCT-15 = test system: HCT-15
RPMI-8226 = test system: RPMI-8226
SF-295 = test system: SF-295
786-0 = test system: 786-0
LOX IMVI = test system: LOX IMVI
CAKI-1 = test system: CAKI-1
SK-OV-3 = test system: SK-OV-3
HCC 2998 = test system: HCC 2998
HT-29 = test system: HT-29
A498 = test system: A498
K562 = test system: K562
SR = test system: SR
MDA-MB-435 = test system: MDA-MB-435
HL-60 = test system: HL-60
MOLT-4 = test system: MOLT-4

Row | SMILES | GI50 (ACHN) | GI50 (CCRF-CEM) | GI50 (SF-539) | GI50 (SN12C) | GI50 (HCT-15) | GI50 (RPMI-8226) | GI50 (SF-295) | GI50 (786-0) | GI50 (LOX IMVI) | GI50 (CAKI-1) | GI50 (SK-OV-3) | GI50 (HCC 2998) | GI50 (HT-29) | GI50 (A498) | GI50 (K562) | GI50 (SR) | GI50 (MDA-MB-435) | GI50 (HL-60) | GI50 (MOLT-4)
1 | COC(=O)C1=C2Nc3ccccc3C23CCN2C(O)C4(CC5CC67CCOC6CCN6CCC8(c9cccc(OC)c9N(C4)C58O)C67)C4OCCC4(C1)C23 (stereo not drawn) | 86.5 µM (inactive) | > 100 µM (inactive) | > 100 µM (inactive) | 79.8 µM (inactive) | > 100 µM | > 100 µM (inactive) | 34.6 µM (inactive) | 24.3 µM (inactive) | 95.5 µM (inactive) | 25.2 µM (inactive) | 68.5 µM (inactive) | > 100 µM (inactive) | > 100 µM (inactive) | 64.3 µM (inactive) | > 100 µM (inactive) | 14.7 µM (inactive) | 58.7 µM (inactive) | > 100 µM (inactive) | 
2 | Clc1cccc2c1OCC1C(c3ccccc3)=NN(c3ccccc3)C21 (stereo not drawn) | 55.5 µM (inactive) | 32.2 µM (inactive) |  |  |  | 22.8 µM (inactive) | 72.1 µM (inactive) | 55.6 µM (inactive) | 39.7 µM (inactive) |  | > 100 µM (inactive) | > 100 µM (inactive) | 83.9 µM (inactive) | > 100 µM (inactive) | 28.9 µM (inactive) |  |  | 31.8 µM (inactive) | 35.2 µM (inactive)
3 | CCCCCCCCCCCCCCCCCCCCCC(=O)Nc1ccn(C2OC(CO)C(O)C2O)c(=O)n1 (stereo not drawn) | 5.2 µM (inactive) | 0.191 µM (active) | > 100 µM (inactive) | > 60.8 µM (inactive) | > 96.2 µM | > 100 µM (inactive) | > 84.3 µM (inactive) | 9.62 µM (inactive) | 9.89 µM (inactive) | > 31.6 µM (inactive) | > 54.6 µM (inactive) | > 100 µM (inactive) | > 100 µM (inactive) | 34.2 µM (inactive) | > 50.6 µM (inactive) | 1.67 µM (inactive) |  | 10 µM (inactive) | 0.273 µM (active)
4 | O=C(Cc1nc2c3c(ccc2nc1O)C(=O)c1ccccc1C3=O)C(=O)Nc1ccccc1[N+](=O)[O-] | 15.7 µM (inactive) | 2.51 µM (inactive) | 17.6 µM (inactive) | > 10 µM (inactive) | > 10 µM | 11.4 µM (inactive) | > 10 µM (inactive) | 15.3 µM (inactive) | 16.5 µM (inactive) | 21.5 µM (inactive) | 60 µM (inactive) | 19.1 µM (inactive) | 19.5 µM (inactive) |  | 12.6 µM (inactive) | 11.7 µM (inactive) |  | 14.5 µM (inactive) | 4.22 µM (inactive)
5 | COc1cc(C(O)C(=O)c2cnc3cc([N+](=O)[O-])ccc3n2)ccc1O (stereo not drawn) | > 100 µM (inactive) | > 100 µM (inactive) | > 100 µM (inactive) | > 100 µM (inactive) | > 100 µM | > 100 µM (inactive) | > 100 µM (inactive) | > 100 µM (inactive) | 77.8 µM (inactive) | > 100 µM (inactive) | > 100 µM (inactive) | > 100 µM (inactive) | > 100 µM (inactive) | > 100 µM (inactive) | > 100 µM (inactive) | > 100 µM (inactive) |  | 86.5 µM (inactive) | > 100 µM (inactive)
6 | Cc1ccc(NC(=O)C(=O)CC(=O)C2CCOC2=O)c(C)c1 (stereo not drawn) | > 100 µM (inactive) | > 100 µM (inactive) | > 100 µM (inactive) | > 100 µM (inactive) | > 100 µM | > 100 µM (inactive) | > 100 µM (inactive) | > 100 µM (inactive) | > 100 µM (inactive) | > 100 µM (inactive) | > 100 µM (inactive) | > 100 µM (inactive) | > 100 µM (inactive) | > 100 µM (inactive) | > 100 µM (inactive) |  |  | > 100 µM (inactive) | 
7 | N#Cc1nc(-c2cccnc2)oc1N | > 100 µM (inactive) | > 100 µM (inactive) |  | > 100 µM (inactive) | > 100 µM | > 100 µM (inactive) |  | > 100 µM (inactive) | > 100 µM (inactive) | > 100 µM (inactive) | > 100 µM (inactive) | > 100 µM (inactive) | > 100 µM (inactive) | > 100 µM (inactive) | > 100 µM (inactive) | > 100 µM (inactive) | > 100 µM (inactive) | > 100 µM (inactive) | 74 µM (inactive)
8 | COc1cc(/C=C\c2ccc(Cl)cc2)cc(OC)c1OC | 1.38 µM (inactive) | 0.0964 µM (active) | 0.147 µM (active) | 0.508 µM (active) | 0.196 µM | 0.143 µM (active) | 0.0331 µM (active) | 0.113 µM (active) | 0.175 µM (active) | 0.384 µM (active) | 0.228 µM (active) | 1.73 µM (inactive) | 0.0459 µM (active) | 0.171 µM (active) | 0.033 µM (active) | 0.0652 µM (active) |  | 0.0251 µM (active) | 0.0762 µM (active)
9 | C/C(=C1/N=C(c2cc([N+](=O)[O-])ccc2Cl)N(c2ccc(Br)cc2)C1=O)c1ccc(N(CCC#N)CCC#N)cc1C | 31.5 µM (inactive) | 12.3 µM (inactive) | 52.2 µM (inactive) | 40.4 µM (inactive) | 16.4 µM | 28.1 µM (inactive) | 79.3 µM (inactive) | 29.6 µM (inactive) | 7.5 µM (inactive) | 52.4 µM (inactive) | > 100 µM (inactive) | 32.1 µM (inactive) | 36.9 µM (inactive) | 25.7 µM (inactive) | 7.78 µM (inactive) | 7.98 µM (inactive) |  | 16.2 µM (inactive) | 9.62 µM (inactive)
10 | O=c1oc2c(O)c(O)cc3c(=O)oc4c(O)c(O)cc1c4c23 [ELLAGIC ACID] | 45.8 µM (inactive) | > 10 µM (inactive) | > 10 µM (inactive) | 38.1 µM (inactive) | 79.8 µM | > 10 µM (inactive) | > 10 µM (inactive) | 27.2 µM (inactive) | 93.5 µM (inactive) | < 0.01 µM (active) | 73.1 µM (inactive) | > 10 µM (inactive) | > 10 µM (inactive) | 21.4 µM (inactive) | > 10 µM (inactive) | 71.1 µM (inactive) |  | > 10 µM (inactive) | > 10 µM (inactive)
11 | NNC(=O)C(=O)N/N=C1\CCC(=O)CC1C(=O)CCC(=O)Nc1ccc(Cl)cc1 (stereo not drawn) | > 100 µM (inactive) | > 100 µM (inactive) | > 100 µM (inactive) | > 100 µM (inactive) | 94.8 µM | > 100 µM (inactive) | > 100 µM (inactive) | > 100 µM (inactive) | > 100 µM (inactive) | > 100 µM (inactive) | > 100 µM (inactive) | > 100 µM (inactive) | > 100 µM (inactive) | > 100 µM (inactive) | > 100 µM (inactive) |  |  | > 100 µM (inactive) | > 100 µM (inactive)
12 | FC(F)(F)c1cccc(C2SCc3nc4ccccc4n32)c1 (stereo not drawn) | 64 µM (inactive) | 32.8 µM (inactive) | 26.6 µM (inactive) | > 100 µM (inactive) |  | 12.9 µM (inactive) | 33.9 µM (inactive) | 61.5 µM (inactive) |  | 55.2 µM (inactive) | 26.8 µM (inactive) | > 100 µM (inactive) | > 100 µM (inactive) |  | 8.61 µM (inactive) | 44 µM (inactive) |  | 5.75 µM (inactive) | 41.4 µM (inactive)
13 | Nc1ccc(C2SCC(=O)N2NS(=O)(=O)c2cccc(C(=O)O)c2)cc1 (stereo not drawn) | > 100 µM (inactive) | 63.8 µM (inactive) | > 100 µM (inactive) | > 100 µM (inactive) | > 100 µM | 10.4 µM (inactive) | > 100 µM (inactive) | > 100 µM (inactive) | > 100 µM (inactive) | > 100 µM (inactive) | > 100 µM (inactive) | > 100 µM (inactive) | > 100 µM (inactive) | > 100 µM (inactive) | > 100 µM (inactive) | 12.1 µM (inactive) | > 100 µM (inactive) | > 100 µM (inactive) | > 100 µM (inactive)
14 | CCCCCC(O)(CCCCC)CCCCCCCCC1=C(O)C(=O)c2ccc(=O)[nH]c2C1=O | 6.37 µM (inactive) | 5.62 µM (inactive) | 7.6 µM (inactive) | 7.64 µM (inactive) | 4.22 µM | 4.12 µM (inactive) | 4.37 µM (inactive) | 8.63 µM (inactive) | 11.7 µM (inactive) | 11.2 µM (inactive) | 15.9 µM (inactive) | 14.5 µM (inactive) | 15.3 µM (inactive) | 12.2 µM (inactive) | 5.07 µM (inactive) | 27.3 µM (inactive) |  | 4.92 µM (inactive) | 6.3 µM (inactive)
15 | C=C1C2CC(OC(C)=O)C3(C)C(c4ccoc4)OC(=O)[C@@H](O)[C@]13OC1C[C@H](OC(C)=O)C(C)(C)[C@H](C(O)C(=O)OC)[C@]12C (stereo partly drawn) | > 100 µM (inactive) | > 100 µM (inactive) | > 100 µM (inactive) | > 100 µM (inactive) | > 100 µM | > 100 µM (inactive) | > 100 µM (inactive) | > 100 µM (inactive) | > 100 µM (inactive) |  | > 100 µM (inactive) | > 100 µM (inactive) | > 100 µM (inactive) | > 100 µM (inactive) | > 100 µM (inactive) |  |  | > 100 µM (inactive) | > 100 µM (inactive)
16 | COC1=C(C)C(=O)C2C(C1=O)C(c1ccc(OC)c(OC)c1)[C@H]2C (stereo partly drawn) | > 100 µM (inactive) | > 100 µM (inactive) | > 100 µM (inactive) |  | > 100 µM | > 100 µM (inactive) | > 100 µM (inactive) | > 100 µM (inactive) | > 100 µM (inactive) | > 100 µM (inactive) | > 100 µM (inactive) | > 100 µM (inactive) | > 100 µM (inactive) | > 100 µM (inactive) | > 100 µM (inactive) | > 100 µM (inactive) |  | > 100 µM (inactive) | > 100 µM (inactive)

Reference: ChEMBL document CHEMBL1201862, “PubChem BioAssay data set” (2004)
